Experimental data taken from patent US8313751B2, “Compositions and methods for the prophylaxis or treatment of viral diseases” (priority 2003, dated 2012).
“Also recorded” adds a separate entry of the source. Read-outs that look alike come from different tables or passages of the source.

Columns and labels:
[1] = system: influenza virus; details: cited from earlier work
[2] = system: influenza virus (fowl plague virus, FPV); set-up: species or system C57 Bl/6 mice; details: mouse, in vivo
[3] = system: influenza A virus strain fowl plague virus (FPV); assay type: cell-based
[4] = system: influenza virus (fowl plague virus, FPV); details: mouse, in vivo, ip
[5] = system: influenza A virus strain fowl plague virus (FPV); assay type: cell-based; remark: listed apart in the source

Row | SMILES | concentration from which inhibition of influenza virus infections in cell culture was observed [1] [mM] | concentration from which inhibition of influenza virus infections in cell culture was observed ([1]; conversion of the mM values) [mg/mL] | animals that survived the infection [2] | antiviral effect compared with lower concentrations [2] | average survival time of the dead animals versus control group [2] | influenza virus multiplication in the lung and in the total organism [2] | viruses in the lung [2] | inhibiting effect on virus multiplication [3] [log steps] | reduction of the virus titers by a factor [3] | animals that survived the infection [4] | average survival time of the dead animals versus control group [4] | body weight [4] | antiviral effectivity in vitro [5] | inhibition of the virus multiplication [5] [log steps] | reduction of the virus titers [5]
1 | CC(=O)Oc1ccccc1C(=O)O [ASA, acetylsalicylic acid] | 5 to 10 | 0.9 to 1.8 | approx. 40% | comparatively not stronger; also recorded: clearly less antivirally effective | clearly longer | distinct inhibition | Smaller doses of ASA more clearly reduced the viruses in the lung than higher doses | > 2 | 10 | approx. 20% | clearly longer | distinct reduction in body weight | have not shown in vitro any antiviral effectivity | 2 | 
2 | S=C(S)N1CCCC1 [PDTC, pyrrolidine dithiocarbamate] |  |  |  |  |  |  |  |  |  |  |  |  |  |  | approx. 10 fold
